# Laboratory results taken from patent US9617310B2 (priority 2013, dated 2017).
# Assays:
# [1] = from C=CCCC[C@@H]1[C@H]2C[C@H]2C[C@H]1OC(=O)N[C@H](C(=O)N1C[C@H](Oc2nc3cc(Cl)ccc3nc2C=C)C[C@H]1C(=O)OC)C(C)(C)C; rcm bond; Zhan Catalyst-1B; DCE; 4.97 mM; 83.0 °C; 0.67 h
# [2] = test system: genotype 3a stable HCV replicon (S52) in Huh-7-derived cells; assay: Stable subgenomic HCV replicon, genotype 3a, Renilla luciferase; assay type: cell-based; conditions: Hepatitis C virus, 72 h, read-out: EC50 3A RLUC
# Description: (§1) Antiviral potency (EC50) was determined in both stable subgenomic HCV replicon cell lines and transient-transfected HCV replicon cells. The term half maximal effective concentration (EC50) refers to the concentration of a drug which induces a response halfway between the baseline and maximum after the exposure time specified below.
# (§2) Stable subgenomic HCV replicons for genotype 1a, 1b, 2a, 3a, and 4a were established in Huh-7-derived cells as described by Lohmann et al (Lohmann V, Korner F, Koch J, et al Replication of subgenomic hepatitis C virus RNAs in a hepatoma cell line. Science 1999; 285:119-3). Each stable cell line contains a bicistronic HCV replicon that encodes a humanized Renilla luciferase (hRLuc) reporter gene fused to a selectable neomycin-resistance gene, followed by an EMCV IRES and the NS3-NS5B coding region of HCV. […] Luciferase activity was measured as a marker for intracellular HCV replication levels.
# (§3) The genotype 1a stable replicon was derived from the H77 HCV strain and contained adaptive mutations P1496L and S2204I. The genotype 1b stable replicon was derived from the Con1 HCV strain and contained adaptive mutations E1202G, T1280I, and K1846T. […] The genotype 3a stable replicon was derived from the S52 HCV strain and contained adaptive mutations P1121 L, A1198T and S2210I (equivalent to S2204I in genotype 1). The genotype 4a stable replicon was derived from the ED43 HCV strain and contained adaptive mutations Q1691R and S2204I. All replicon cell lines were propagated in Huh-7-derived cells and maintained in Dulbecco's modified Eagle's Medium (DMEM) supplemented with 10% fetal bovine serum (FBS) and 0.5 mg/ml G418.
# (§4) To perform EC50 assays, cells from each HCV replicon were dispensed into 384-well plates. Compounds were dissolved in DMSO at a concentration of 10 mM and diluted in DMSO using an automated pipetting instrument. Three-fold serially diluted compounds were directly added to the cells using an automated instrument. DMSO was used as a negative (solvent; no inhibition) control, and a combination of three HCV inhibitors including a protease inhibitor; an NS5A inhibitor and a nucleoside inhibitor was used at concentrations >100×EC50 as a positive control (100% inhibition). Seventy-two hours later, cells were lysed and Renilla luciferase activity were quantified as recommended by the manufacturer (Promega-Madison, Wis.). Non-linear regression was performed to calculate […], values.
# NS3 genotype 3a protease = target: T1, NS3 genotype 3a protease (UniProt Q81258); assay: Ki determination, NS3 protease genotype 3a (fluorogenic depsipeptide substrate); assay type: biochemical, hepatitis C virus; conditions: NS3 protease domain genotype 3a, NS4A peptide
# T1 construct: Purified NS3 protease domain (amino acids 1-181) of the genotype 1b and 3a virus were generated as above; fused on or other part: N-terminal hexahistidine tag with an rTEV protease cleavage site (vector p28-N6H-Tev-NS3(181)3)
# T1 sequence (Q81258 1033-1663): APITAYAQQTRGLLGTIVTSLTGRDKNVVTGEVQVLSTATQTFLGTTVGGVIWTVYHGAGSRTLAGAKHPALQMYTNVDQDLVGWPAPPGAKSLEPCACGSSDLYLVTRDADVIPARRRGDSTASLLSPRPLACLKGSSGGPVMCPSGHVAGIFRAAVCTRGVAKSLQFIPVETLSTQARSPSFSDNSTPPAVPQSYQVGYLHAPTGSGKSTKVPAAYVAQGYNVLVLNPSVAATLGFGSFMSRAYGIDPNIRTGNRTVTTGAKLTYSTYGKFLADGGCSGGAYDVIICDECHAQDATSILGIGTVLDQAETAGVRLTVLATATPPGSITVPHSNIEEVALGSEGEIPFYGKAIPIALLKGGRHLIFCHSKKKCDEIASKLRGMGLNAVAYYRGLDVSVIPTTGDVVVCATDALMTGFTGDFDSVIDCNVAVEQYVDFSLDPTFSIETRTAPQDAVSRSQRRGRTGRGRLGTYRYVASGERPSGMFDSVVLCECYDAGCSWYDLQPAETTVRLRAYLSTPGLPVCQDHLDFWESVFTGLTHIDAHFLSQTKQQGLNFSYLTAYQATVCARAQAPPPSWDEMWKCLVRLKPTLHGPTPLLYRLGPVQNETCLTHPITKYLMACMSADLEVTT
# Description: (§5) Ki Determination for Genotypes 1b and 3a NS3 Protease.
# (§6) Purified NS3 protease domain (amino acids 1-181) of the genotype 1b and 3a virus were generated as above. The internally quenched fluorogenic depsipeptide substrate Ac-DED(Edans)-EEAbuψ[COO]ASK(Dabcyl)-NH2 and a synthetic peptide containing the hydrophobic core residues of the NS4A protein cofactor ([…]; NS4A peptide) were obtained from Anaspec, Inc. (San Jose, Calif.). Other chemicals and biochemicals were of reagent grade or better and were purchased from standard suppliers.
# (§7) Reactions were run at room temperature in buffer consisting of 50 mM HEPES, 40% glycerol, 0.05% Triton X-100, 10 mM DTT, and 10% DMSO. The final assay solutions contained 50 pM NS3 genotype 1b protease or 200 pM genotype 3a protease, 20 μM NS4A peptide, and 4 μM substrate (genotype 1b) or 2 μM substrate (genotype 3a). Inhibitor concentrations varied from 100 nM to 5 pM in 3-fold dilutions, and no-inhibitor controls were included.
# (§8) Compound dilutions were made in DMSO at 20× final concentration. Reaction mixtures were prepared in 96-well assay plates. A solution of enzyme and NS4A peptide in assay buffer (25 μL volume with both reagents at 4× final concentration) was mixed with 45 μL assay buffer and 5 μL of either inhibitor or DMSO, and pre-incubated at room temperature for 1 hour. The reaction was started by addition of 25 μL substrate solution at 4× final concentration. Plates were mixed vigorously for 5-10 seconds and reactions were allowed to proceed for 90 minutes. Fluorescence was measured every 30 s between 90 and 120 minutes reaction time using a Tecan InfiniTe M1000 or PerkinElmer Envision multimode plate reader with an excitation wavelength of 340 nm and an emission wavelength of 490 nm.
# (§9) Rates were calculated from the progress curves at steady state, in the time frame of 90-120 minutes after addition of substrate. To determine the Ki, rates were plotted as a function of inhibitor concentration, and the data were fit with equation 1 (Morrison, J. F., Biochimica et Biophysica Acta 1969, 185, 269-286) to calculate Ki^app using GraphPad Prism 5. Active fraction of enzyme was determined by active site titration with known potent inhibitors. Ki was calculated from Ki^app/(1+[[S]/Km]).
# [3] = test system: genotype 2a stable HCV replicon (JFH-1) in Huh-7-derived cells; assay: Stable subgenomic HCV replicon, genotype 2a, Renilla luciferase; assay type: cell-based; conditions: Hepatitis C virus, stable replicon genotype 2a, 72 h, read-out: EC50 2A RLUC
# Description: as §1, §2, §3, §4
# [4] = test system: genotype 1b stable HCV replicon (Con1) in Huh-7-derived cells; assay: Stable subgenomic HCV replicon, genotype 1b, Renilla luciferase; assay type: cell-based; conditions: Hepatitis C virus, stable replicon genotype 1b, 72 h, read-out: EC50 1B RLUC
# Description: as §1, §2, §3, §4
# [5] = test system: genotype 4a stable HCV replicon (ED43) in Huh-7-derived cells; assay: Stable subgenomic HCV replicon, genotype 4a, Renilla luciferase; assay type: cell-based; conditions: Hepatitis C virus, 72 h, read-out: EC50 4A RLUC
# Description: as §1, §2, §3, §4
# NS3 genotype 1b protease = target: T2, NS3 genotype 1b protease (Hepatitis C virus genotype 1b, UniProt Q9WMX2, E1202G); assay: Ki determination, NS3 protease genotype 1b (fluorogenic depsipeptide substrate); assay type: biochemical; conditions: NS3 protease domain genotype 1b, NS4A peptide
# T2 construct: Purified NS3 protease domain (amino acids 1-181) of the genotype 1b and 3a virus were generated as above; K3 hexahistidine tag (N); rTEV protease cleavage site (N); made in house; host or cells: E. coli BL21AI
# Description: as §5, §6, §7, §8, §9
# [6] = test system: genotype 1a stable HCV replicon (H77) in Huh-7-derived cells; assay: Stable subgenomic HCV replicon, genotype 1a, Renilla luciferase; assay type: cell-based; conditions: Hepatitis C virus, stable replicon genotype 1a, 72 h, read-out: EC50 1A RLUC
# Description: as §1, §2, §3, §4
# T2 sequence (Q9WMX2 1027-1207 E1202G, other chains not shown): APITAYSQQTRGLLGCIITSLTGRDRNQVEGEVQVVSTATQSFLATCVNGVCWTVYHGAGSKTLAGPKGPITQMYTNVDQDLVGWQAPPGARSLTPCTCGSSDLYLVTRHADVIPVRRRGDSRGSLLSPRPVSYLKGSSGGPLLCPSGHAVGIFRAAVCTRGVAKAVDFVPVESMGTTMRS
SMILES,"ring closure, yield of all isomers [1] [%]",EC50 [2] [nM],Ki (NS3 genotype 3a protease) [nM],EC50 [3] [nM],EC50 [4] [nM],EC50 [5] [nM],Ki (NS3 genotype 1b protease) [nM],EC50 [6] [nM]
COC(=O)[C@@H]1C[C@@H]2CN1C(=O)[C@H](C(C)(C)C)NC(=O)O[C@@H]1C[C@@H]3C[C@@H]3[C@H]1CCCC=Cc1nc3ccc(Cl)cc3nc1O2,56.6,–,–,–,–,–,–,–
"COc1ccc2nc3c(nc2c1)O[C@@H]1C[C@@H](C(=O)N[C@]2(C(=O)NS(=O)(=O)C4CC4)C[C@H]2C(F)F)N(C1)C(=O)[C@H](C(C)(C)C)NC(=O)O[C@H]1[C@@H]2CC[C@@H](C2)[C@@H]1CCCCC3 [Example 6, (1S,4R,4aS,8S,11S,13R,25aS)-8-tert-butyl-N-[(1R,2R)-1-[(cyclopropylsulfonyl)carbamoyl]-2-(difluoromethyl)cyclopropyl]-17-methoxy-6,9-dioxo-2,3,4,4a,6,7,8,9,12,13,21,22,23,24,25,25a-hexadecahydro-1H,11H-1, 4:10,13-dimethanoquinoxalino[2,3-k][1,10,3,6]benzodioxadiazacyclononadecine-11-carboxamide]",–,3840,1.2,294,581,433,0.01,723
